{"source": "patent US9914958B2", "about": "“Nucleic acid-based linkers for detecting and measuring interactions” (President and Fellows of Harvard College, priority 2011, dated 2018)", "biological_target": "streptavidin (Streptomyces avidinii, UniProt P22629)", "sequence (P22629 25-183, species assumed)": "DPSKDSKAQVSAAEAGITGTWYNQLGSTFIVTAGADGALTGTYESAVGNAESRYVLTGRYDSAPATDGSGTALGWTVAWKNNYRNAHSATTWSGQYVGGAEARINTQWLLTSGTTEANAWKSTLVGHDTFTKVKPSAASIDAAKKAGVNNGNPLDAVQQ", "test": "DNA nanoswitch gel electrophoresis assay of biotin-streptavidin dissociation kinetics", "assay_type": "binding", "details": "for dissociation time: 150 mM salt, multiplied by two to represent a single biotin-streptavidin interaction", "source_text": "Linkers were designed according to protocols for long (2580 bp) and short (600 bp) loops as described herein. […] All other oligos were the same as those used previously. Briefly, looped constructs were made by mixing a long single-stranded DNA (M13mp18, in this case) with over 121 oligos that are complementary along its length. […] The constructs come together by self-assembly with a temperature ramp heating and cooling them.\nRecognizing that the nanoswitch conformation informs the receptor-ligand binding state (bound or unbound), and that the conformation can be observed on a gel, an assay to measure bulk interaction kinetics was developed. The assay, conceptually shown in FIG. 7, proceeds as follows: 1) form a looped nucleic acid (DNA) construct that relies on a receptor and a ligand being bound to each other, 2) quench the interaction between the receptor and the ligand, for example, with excess receptor or ligand to prevent rebinding following dissociation, 3) monitor the relative amount of looped construct over time to measure kinetics.\nLinear double-stranded DNA constructs 7249 base pairs (bp) in length were self-assembled by combining the single-stranded M13 bacteriophage genome with 121 complementary oligos. (See also Halvorsen K et al., 2011). Two of the oligos were labeled with single biotins and placed 2580 bp from each other, such that interaction with streptavidin induced the formation of a 2580 bp loop in the structure. […] The entire array of 16 conditions with five time points each plus controls was then run on a single 96 lane agarose gel (FIG. 8).\nTo determine the biotin-streptavidin dissociation kinetics, an image of the gel was analyzed using publicly available software (ImageJ). The gel analysis tool in ImageJ was used to measure the integrated intensity of the band containing looped construct, and this quantity was normalized by the integrated intensity of a reference band in the same lane from a DNA ladder, which was added to the construct prior to starting experiments. Individual time constants for each experimental condition were determined by fitting a single exponential decay to the data using an error weighted least squares fitting.", "data": [{"compound": "O=C(O)CCCC[C@@H]1SC[C@@H]2NC(=O)N[C@@H]21", "note": "[biotin]", "values": [{"measurement": "dissociation time", "setting": "25° C.", "result": "148 ± 10", "unit": "h"}, {"measurement": "dissociation time", "setting": "37° C.", "result": "11.2 ± 3", "unit": "h"}, {"measurement": "time constants, range over the conditions tested", "setting": "16 conditions: four salts, four temperatures (4° C. to 50° C., 5 mM to 500 mM)", "result": "half of an hour to two months"}, {"measurement": "time constants, range (FIG. 8 legend)", "setting": "16 experimental conditions, FIG. 8 table", "result": "less than 1 hour to over 1000 hours"}, {"measurement": "variation of off-rate with temperature", "setting": "at a given salt concentration, from 4° C. to 50° C.", "result": "over 100 fold"}, {"measurement": "change of off-rate with salt", "setting": "at a given temperature, from 5 mM to 500 mM", "result": "less than 2 fold"}, {"measurement": "fastest off-rate measured (as a time)", "setting": "high temperature", "result": 40, "unit": "min"}]}]}
